Assay results taken from patent US20220118037A1, “METHOD FOR IMPROVING SARCOPENIA BY USING PHELLINUS LINTEUS” (GRAPE KING BIO LTD, priority 2020, published 2022).
Marks after values point to notes of the source that are not given here.

Test system: C2C12 cell line
Assay: Dexamethasone-induced sarcopenia model in differentiated C2C12 myotubes, diameters of the myotubes (H&E stain, Image-Pro Plus)
Assay type: cell-based, mouse
Settings: 10 μM dexamethasone alone in 0.1% DMSO, 24 hours, C2C12 myotubes (negative control group)
Excerpt: Mouse skeletal myocytes (i.e., C2C12 cell line) were utilized to establish a sarcopenia model. An artificially synthetic corticosteroid, dexamethasone was utilized to establish the sarcopenia model. Dexamethasone could inhibit the immune system and thus was utilized as an anti-inflammation drug or an allergy drug. […] Thus, dexamethasone was used to induce muscular dystrophy for simulating sarcopenia in this Example. First, a growth medium [Dulbecco's modified minimal essential medium (DMEM) including 10% fetal bovine serum] was utilized to culture the C2C12 cell line under 37° C., 5% CO2, in which the start density of the C2C12 cell line was 1×10^5 to 2×10^5 cells/mL. […] The diameters of the myotubes were measured by using a commercial software (Image-Pro Plus software), and the results of statistical analysis on the diameters of the myotubes were shown in Table 1, in which the statistic method used to analyze the percentage of each items was paired sample t-test, and the symbols “#” and “*” represented significant differences compared to the blank control group and negative control group (p<0.05, n=60), respectively.

C[C@@H]1C[C@H]2[C@@H]3CCC4=CC(=O)C=C[C@]4(C)[C@@]3(F)[C@@H](O)C[C@]2(C)[C@@]1(O)C(=O)CO [dexamethasone]
Diameters of the myotubes: 19.98 ± 6.42# μm
